According to patent publication US8492371B2, “Compounds as cannabinoid receptor ligands” (priority 2009, dated 2013):
Read-outs that look alike come from different tables or passages of the source.

Assays:
[1] = acute thermal, persistent, inflammatory and neuropathic pain models; cited from earlier work
human CB2 receptors = molecular target: T1, human CB2 receptors (Homo sapiens, UniProt P34972); assay: Human CB2 radioligand binding assay ([3H]CP-55,940 competition)
T1 construct: expressed in transfected cells; host or cells: HEK293
How it was run: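 Membranes from HEK293 cells stably expressing human CB2 (5 μg/well) incubated 90 min at 30 °C with 0.5 nM [3H]CP-55,940 and five concentrations of displacer (0.01 nM–10 μM) in pH 7.4 Tris/EDTA/MgCl2 buffer with fatty acid free BSA. Bound radioactivity counted after filtration; nonspecific binding defined with 10 μM unlabeled CP-55,940.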

rat CB2 receptors = molecular target: T2, rat CB2 receptors (Rattus norvegicus, UniProt Q9QZN9); assay: Rat CB2 radioligand binding assay ([3H]CP-55,940 competition)
T2 construct: expressed in transfected cells; host or cells: HEK293
T2 sequence (Q9QZN9 1-360): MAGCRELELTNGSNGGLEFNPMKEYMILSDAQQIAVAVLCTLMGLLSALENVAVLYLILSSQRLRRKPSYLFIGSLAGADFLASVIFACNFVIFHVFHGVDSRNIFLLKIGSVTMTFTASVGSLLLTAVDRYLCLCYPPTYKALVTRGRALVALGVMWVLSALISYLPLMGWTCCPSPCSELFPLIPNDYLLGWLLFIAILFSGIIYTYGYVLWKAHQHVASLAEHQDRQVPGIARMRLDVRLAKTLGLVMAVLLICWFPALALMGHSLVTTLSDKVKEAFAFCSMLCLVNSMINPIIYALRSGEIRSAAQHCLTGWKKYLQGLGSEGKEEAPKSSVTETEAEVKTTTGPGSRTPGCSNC
How it was run: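 Membranes from HEK293 cells stably expressing rat CB2 (20 μg/well) incubated 45 min at 30 °C with 0.5 nM [3H]CP-55,940 and five competitor concentrations in Tris/EDTA/MgCl2 buffer with 0.5 mg/mL BSA, pH 7.4. Filtration and scintillation counting; nonspecific binding with 10 μM unlabeled CP-55,940.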

[2] = neuropathic, incisional, chronic and acute inflammatory pain; cited from earlier work
[3] = rat formalin model of persistent pain; cited from earlier work
microglial = conditions: in vitro; blocked by SR144528; cited from earlier work
[4] = low doses, apolipoprotein E knockout mice; inhibited by SR144528; cited from earlier work
[5] = cited from earlier work

T1 sequence (P34972 whole entry): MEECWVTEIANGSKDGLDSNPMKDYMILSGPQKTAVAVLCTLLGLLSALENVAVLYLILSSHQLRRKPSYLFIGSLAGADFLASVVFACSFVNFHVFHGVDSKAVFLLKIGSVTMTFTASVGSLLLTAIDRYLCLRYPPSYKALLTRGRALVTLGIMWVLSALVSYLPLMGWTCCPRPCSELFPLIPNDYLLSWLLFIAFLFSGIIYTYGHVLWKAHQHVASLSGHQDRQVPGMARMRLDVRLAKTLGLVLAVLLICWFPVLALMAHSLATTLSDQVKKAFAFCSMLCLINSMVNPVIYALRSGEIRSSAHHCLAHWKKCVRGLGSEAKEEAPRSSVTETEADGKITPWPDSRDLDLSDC

**Q.** For CN1CCCCC1Cn1cc(C(=O)c2cc([N+](=O)[O-])ccc2I)c2ccccc21 (centres unmarked) [AM-1241], which analgesic efficacy [1] is on record?
**A.** exhibits robust analgesic efficacy

**Q.** Which Ki (human CB2 receptors) does the source give for COCc1ccc(C(F)(F)F)cc1C(=O)/N=c1\cc(C(C)(C)C)n(C)n1C[C@H]1CCCO1 [Example 110, N-{(3E)-5-tert-butyl-1-methyl-2-[(2R)-tetrahydrofuran-2-ylmethyl]-1,2-dihydro-3H-pyrazol-3-ylidene}-2-(methoxymethyl)-5-(trifluoromethyl)benzamide] here?
**A.** 12 nM

**Q.** What about the Ki (rat CB2 receptors) of the same compound?
**A.** 3 nM

**Q.** What does the source list for Cn1c(C(C)(C)C)c/c(=N\C(=O)c2cc(C(F)(F)F)ccc2CC(=O)OC(C)(C)C)n1C[C@H]1CCCO1 [Example 111, tert-butyl [2-[({(3E)-5-tert-butyl-1-methyl-2-[(2R)-tetrahydrofuran-2-ylmethyl]-1,2-dihydro-3H-pyrazol-3-ylidene}amino)carbonyl]-4-(trifluoromethyl)phenyl]acetate]?
**A.** Ki (human CB2 receptors): 14 nM; Ki (rat CB2 receptors): 12 nM

**Q.** Which results are given for Cn1c(C(C)(C)C)c/c(=N\C(=O)c2cc(C(F)(F)F)ccc2N)n1C[C@H]1CCCO1 [Example 112, 2-amino-N-{(3E)-5-tert-butyl-1-methyl-2-[(2R)-tetrahydrofuran-2-ylmethyl]-1,2-dihydro-3H-pyrazol-3-ylidene}-5-(trifluoromethyl)benzamide]?
**A.** Ki (human CB2 receptors): 3.3 nM; Ki (rat CB2 receptors): 2.4 nM

**Q.** Which Ki (human CB2 receptors) does the source give for Cn1c(C(C)(C)C)c/c(=N\C(=O)c2cc(C(F)(F)F)ccc2NS(C)(=O)=O)n1C[C@H]1CCCO1 [Example 113, N-{(3E)-5-tert-butyl-1-methyl-2-[(2R)-tetrahydrofuran-2-ylmethyl]-1,2-dihydro-3H-pyrazol-3-ylidene}-2-[(methylsulfonyl)amino]-5-(trifluoromethyl)benzamide] here?
**A.** 110 nM

**Q.** What about the Ki (rat CB2 receptors) of the same compound?
**A.** 40 nM

**Q.** For Cn1c(C(C)(C)C)c/c(=N\C(=O)c2cc(C#N)ccc2F)n1C[C@H]1CCCO1 [Example 114, N-{(3E)-5-tert-butyl-1-methyl-2-[(2R)-tetrahydrofuran-2-ylmethyl]-1,2-dihydro-3H-pyrazol-3-ylidene}-5-cyano-2-fluorobenzamide], which Ki (human CB2 receptors) is on record?
**A.** 41 nM

**Q.** What about the Ki (rat CB2 receptors) of the same compound?
**A.** 20 nM

**Q.** For COC(=O)c1cccc(C(=O)/N=c2\cc(C(C)(C)C)n(C)n2C[C@H]2CCCO2)c1 [Example 115], which Ki (human CB2 receptors) is on record?
**A.** 25 nM

**Q.** What about the Ki (rat CB2 receptors) of the same compound?
**A.** 5.4 nM

**Q.** With Cn1c(C(C)(C)C)c/c(=N\C(=O)c2cc(Cl)ccc2F)n1C[C@H]1CCCO1 [Example 116] as the compound, how does the Ki (human CB2 receptors) read?
**A.** 26 nM

**Q.** What about the Ki (rat CB2 receptors) of the same compound?
**A.** 11 nM

**Q.** With COC(=O)C12CC3CC(CC(C(=O)/N=c4\cc(C(C)(C)C)n(C)n4C[C@H]4CCCO4)(C3)C1)C2 [Example 118] as the compound, how does the Ki (human CB2 receptors) read?
**A.** 42 nM

**Q.** And the Ki (rat CB2 receptors)?
**A.** 14 nM

**Q.** With Cn1c(C(C)(C)C)c/c(=N\C(=O)c2cc(C(F)(F)F)ccc2OCC2CC(=NO)C2)n1C[C@H]1CCCO1 (stereo partly drawn) [Example 119, N-{(3E)-5-tert-butyl-1-methyl-2-[(2R)-tetrahydrofuran-2-ylmethyl]-1,2-dihydro-3H-pyrazol-3-ylidene}-2-{[3-(hydroxyimino)cyclobutyl]methoxy}-5-(trifluoromethyl)benzamide] as the compound, how does the Ki (human CB2 receptors) read?
**A.** 70 nM

**Q.** And the Ki (rat CB2 receptors)?
**A.** 25 nM

**Q.** Which Ki (human CB2 receptors) does the source give for Cn1c(C(C)(C)C)c/c(=N\C(=O)c2cc(C(F)(F)F)ccc2NC(=O)OC(C)(C)C)n1C[C@H]1CCCO1 [Example 120, tert-butyl 2-[({(3E)-5-tert-butyl-1-methyl-2-[(2R)-tetrahydrofuran-2-ylmethyl]-1,2-dihydro-3H-pyrazol-3-ylidene}amino)carbonyl]-4-(trifluoromethyl)phenylcarbamate] here?
**A.** 1.7 nM

**Q.** What about the Ki (rat CB2 receptors) of the same compound?
**A.** 2.1 nM

**Q.** What does the source list for CN(C)S(=O)(=O)Nc1ccc(C(F)(F)F)cc1C(=O)/N=c1\cc(C(C)(C)C)n(C)n1C[C@H]1CCCO1 [Example 121, N-{(3E)-5-tert-butyl-1-methyl-2-[(2R)-tetrahydrofuran-2-ylmethyl]-1,2-dihydro-3H-pyrazol-3-ylidene}-2-{[(dimethylamino)sulfonyl]amino}-5-(trifluoromethyl)benzamide]?
**A.** Ki (human CB2 receptors): 53 nM; Ki (rat CB2 receptors): 15 nM

**Q.** Which Ki (human CB2 receptors) does the source give for C=Cc1ccc(C(F)(F)F)cc1C(=O)/N=c1\cc(C(C)(C)C)n(C)n1C[C@H]1CCCO1 [Example 122, N-{(3E)-5-tert-butyl-1-methyl-2-[(2R)-tetrahydrofuran-2-ylmethyl]-1,2-dihydro-3H-pyrazol-3-ylidene}-5-(trifluoromethyl)-2-vinylbenzamide] here?
**A.** 8.2 nM

**Q.** What about the Ki (rat CB2 receptors) of the same compound?
**A.** 1.4 nM

**Q.** What does the source list for CC(C)CS(=O)(=O)Nc1ccc(C(F)(F)F)cc1C(=O)/N=c1\cc(C(C)(C)C)n(C)n1C[C@H]1CCCO1 [Example 125, N-{(3E)-5-tert-butyl-1-methyl-2-[(2R)-tetrahydrofuran-2-ylmethyl]-1,2-dihydro-3H-pyrazol-3-ylidene}-2-[(isobutylsulfonyl)amino]-5-(trifluoromethyl)benzamide]?
**A.** Ki (human CB2 receptors): 32 nM; Ki (rat CB2 receptors): 25 nM

**Q.** With COC(=O)Cc1ccc(C(F)(F)F)cc1C(=O)/N=c1\cc(C(C)(C)C)n(C)n1C[C@H]1CCCO1 [Example 128, methyl [2-[({(3E)-5-tert-butyl-1-methyl-2-[(2R)-tetrahydrofuran-2-ylmethyl]-1,2-dihydro-3H-pyrazol-3-ylidene}amino)carbonyl]-4-(trifluoromethyl)phenyl]acetate] as the compound, how does the Ki (human CB2 receptors) read?
**A.** 243 nM

**Q.** And the Ki (rat CB2 receptors)?
**A.** 107 nM

**Q.** Which Ki (human CB2 receptors) does the source give for Cn1c(C(C)(C)C)c/c(=N\C(=O)c2cc([N+](=O)[O-])ccc2F)n1C[C@H]1CCCO1 [Example 129, N-{(3E)-5-tert-butyl-1-methyl-2-[(2R)-tetrahydrofuran-2-ylmethyl]-1,2-dihydro-3H-pyrazol-3-ylidene}-2-fluoro-5-nitrobenzamide] here?
**A.** 8.6 nM

**Q.** What about the Ki (rat CB2 receptors) of the same compound?
**A.** 2.3 nM

**Q.** With Cn1c(C(C)(C)C)c/c(=N\C(=O)c2cccc(C#N)c2)n1C[C@H]1CCCO1 [Example 130, N-{(3E)-5-tert-butyl-1-methyl-2-[(2R)-tetrahydrofuran-2-ylmethyl]-1,2-dihydro-3H-pyrazol-3-ylidene}-3-cyanobenzamide] as the compound, how does the Ki (human CB2 receptors) read?
**A.** 72 nM

**Q.** And the Ki (rat CB2 receptors)?
**A.** 17 nM

**Q.** For CCOC(=O)CCc1ccc(C(F)(F)F)cc1C(=O)/N=c1\cc(C(C)(C)C)n(C)n1C[C@H]1CCCO1 [Example 131, ethyl 3-[2-[({(3E)-5-tert-butyl-1-methyl-2-[(2R)-tetrahydrofuran-2-ylmethyl]-1,2-dihydro-3H-pyrazol-3-ylidene}amino)carbonyl]-4-(trifluoromethyl)phenyl]propanoate], which Ki (human CB2 receptors) is on record?
**A.** 23 nM

**Q.** And the Ki (rat CB2 receptors)?
**A.** 18 nM

**Q.** With Cn1c(C(C)(C)C)c/c(=N\C(=O)c2cc(Br)ccc2F)n1C[C@H]1CCCO1 [Example 132, 5-bromo-N-{(3E)-5-tert-butyl-1-methyl-2-[(2R)-tetrahydrofuran-2-ylmethyl]-1,2-dihydro-3H-pyrazol-3-ylidene}-2-fluorobenzamide] as the compound, how does the Ki (human CB2 receptors) read?
**A.** 15 nM

**Q.** And the Ki (rat CB2 receptors)?
**A.** 7.1 nM

**Q.** For Cn1c(C(C)(C)C)c/c(=N\C(=O)c2cc(C(F)(F)F)ccc2Oc2ccccc2)n1C[C@H]1CCCO1 [Example 133, N-{(3E)-5-tert-butyl-1-methyl-2-[(2R)-tetrahydrofuran-2-ylmethyl]-1,2-dihydro-3H-pyrazol-3-ylidene}-2-phenoxy-5-(trifluoromethyl)benzamide], which Ki (human CB2 receptors) is on record?
**A.** 107 nM

**Q.** And the Ki (rat CB2 receptors)?
**A.** 39 nM

**Q.** For COc1ccc2c(c1)c(CCN1CCOCC1)c(C)n2C(=O)c1cccc(Cl)c1Cl [GW405833], which “efficacy in pain models” value [2] is on record?
**A.** is efficacious

**Q.** With CCCCCCC(C)(C)c1cc(OC)c([C@@H]2C=C(CO)[C@@H]3C[C@H]2C3(C)C)c(OC)c1 [HU-308] as the compound, how does the antinociceptive response [3] read?
**A.** elicits an antinociceptive response

**Q.** For CCCC(C)(C)c1ccc2c(c1)OC(C)(C)[C@@H]1CC=C(C)C[C@@H]21 [JWH-133], which “effect on β-amyloid-induced microglial activation and neurotoxicity” value (microglial) is on record?
**A.** abrogated β-amyloid-induced microglial activation and neurotoxicity

**Q.** Which “progression of atherosclerotic lesions” value [4] does the source give for (−)-Δ^9-Tetrahydrocannabinol [THC] here?
**A.** slowed the progression of atherosclerotic lesions

**Q.** What does the source list for “N-({[(2Z)-5-tert-butyl-3-[(2R)-tetrahydrofuran-2-ylmethyl]-1,3,4-thiadiazol-2(3 H)-ylidene]amino}carbonyl)-L-phenylalaninamide [Example 80]”?
**A.** Ki (human CB2 receptors; HEK293 membranes, 0.5 nM [3H]CP-55,940, read-out: human CB2 Ki): 28 nM; Ki (rat CB2 receptors; HEK293 membranes, 0.5 nM [3H]CP-55,940, read-out: rat CB2 Ki): 38 nM

**Q.** Which ovariectomy-induced bone loss ([5]; mice, model for post-menopausal osteoporosis) does the source give for SR144528 here?
**A.** reverse ovariectomy-induced bone loss

**Q.** What about the osteoclast activity ([5]; mouse, in vivo) of the same compound?
**A.** inhibit osteoclast activity
